Assay results taken from patent US9914908B2, “Method of introducing a toxin or dye into mammalian pluripotent cells using rBC2LCN” (National Institute of Advanced Industrial Science and …, priority 2013, dated 2018).
pKd: −log10 of the molar value.

What was measured:
Details in all cases: read-out: dissociation constant (Kd)
[1] = target: T1, rBC2LCN (recombinant BC2LCN lectin, N-terminal domain of BC2L-C protein, Burkholderia cenocepacia), wild-type, SEQ ID NO: 1 (Burkholderia cenocepacia, UniProt B4EH86); assay: Binding affinity of wild-type rBC2LCN to sugar chain ligands by frontal affinity chromatography
T1 sequence (B4EH86 1-156): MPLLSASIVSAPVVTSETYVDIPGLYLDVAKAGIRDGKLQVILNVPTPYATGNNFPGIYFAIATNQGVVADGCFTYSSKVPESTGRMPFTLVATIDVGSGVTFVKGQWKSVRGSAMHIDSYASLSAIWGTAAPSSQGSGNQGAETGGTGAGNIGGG
Source text: (§1) The binding affinities of rBC2LCN-ETA and wild-type rBC2LCN to “Fucα1-2Galβ1-3GlcNAc (H type 1)” and “Fucα1-2Galβ1-3GalNAc (H type 3)” as sugar chain ligands for rBC2LCN were examined by frontal affinity chromatography (Non Patent Literature 8). The results are shown below (Table 1).

[2] = target: T2, rBC2LCN-ETA fusion protein, rBC2LCN-(GSGGG)2-ETA (Burkholderia cenocepacia rBC2LCN, SEQ ID NO: 1, fused through spacer GSGGG, SEQ ID NO: 3, to cell-killing domain of Pseudomonas aeruginosa exotoxin A, SEQ ID NO: 2) (Burkholderia cenocepacia, UniProt B4EH86); assay: Binding affinity of rBC2LCN-ETA fusion protein to sugar chain ligands by frontal affinity chromatography
T2 construct: E. coli
Source text: as §1

[3] = target: T3, rBC2LCN-ETA fusion protein, rBC2LCN-(GSGGG)2-ETA (Burkholderia cenocepacia rBC2LCN, SEQ ID NO: 1, fused through spacer GSGGG, SEQ ID NO: 3, to cell-killing doma (Burkholderia cenocepacia, UniProt B4EH86)); assay: as above; set-up: species or system Burkholderia cenocepacia / Pseudomonas aeruginosa
T3 construct: E. coli
Source text: as §1

| Compound | pKd [1] | pKd [2] | pKd [3] |
| --- | --- | --- | --- |
| CC(=O)N[C@H]1[C@H](Oc2ccc([N+](=O)[O-])cc2)O[C@H](CO)[C@@H](O)[C@@H]1O[C@@H]1O[C@H](CO)[C@H](O)[C@H](O)[C@H]1O[C@@H]1O[C@@H](C)[C@@H](O)[C@@H](O)[C@@H]1O [H type1-pNP] | 5.00 | 5.08 | – |
| CC(=O)N[C@H]1[C@@H](Oc2ccc([N+](=O)[O-])cc2)O[C@H](CO)[C@H](O)[C@@H]1O[C@@H]1O[C@H](CO)[C@H](O)[C@H](O)[C@H]1O[C@@H]1O[C@@H](C)[C@@H](O)[C@@H](O)[C@@H]1O [H type3-pNP] | 4.49 | – | 4.60 |
| CC(=O)N[C@H]1[C@@H](Oc2ccc([N+](=O)[O-])cc2)O[C@H](CO)[C@H](O)[C@@H]1O[C@@H]1O[C@H](CO)[C@H](O)[C@H](O)[C@H]1O[C@@H]1O[C@@H](C)[C@@H](O)[C@@H](O)[C@@H]1O [H type 3, Fucα1-2Galβ1-3GalNAc] | 4.60 | – | 4.49 |
